In US20190142893A1, “Electron, Radical, or Reactive Oxygen Species-Scavenging Agent Based Therapy of Inborn Errors of Fatty Acid Oxidation and Oxidative Phosphorylation” (University of Pittsburgh- Of the Commonwealth System of …, priority 2016, published 2019):

Experiments:
Format in all cases: cell-based, human
[1] = system: VLCAD deficient fibroblasts (Fb671, Fb773, Fb834, Fb833); assay: Superoxide production (MitoSOX Red, flow cytometry) in VLCAD deficient fibroblasts; conditions: patient cells, media without glucose 48 h, after 24 h of treatment; FIGS. 27 and 28
Description: ROS generation: control and patient fibroblasts were cultivated in normal media or without glucose for 48 hours, then incubated for 15 min with MitoSox Red (Life Technologies). Fluorescence was evaluated by flow cytometry.
(§1) Cells were grown in Dulbecco's Modified Eagle Medium (DMEM), Corning Life Sciences, Manassas, Va., containing high glucose levels or in DMEM devoid of glucose for 48-72 h. Both media were supplemented with glutamine, 10% fetal bovine serum, 4 mM glutamine, 100 IU penicillin and 100 μg/mL streptomycin, Corning Life Sciences, Manassas, Va.
(§2) Cells were treated with different compounds in different concentrations 24 or 48 h before the assays. The compounds used were N-acetylcysteine (1 mM), bezafibrate (600 μM), resveratrol (75 μM), MiloQ (200 nM), trolox (1 mM) and JP4-039 (40 and 200 nM).
(§3) Cell suspension containing 1×10^5 cells per mL were incubated for 25 min at 37° C. with 150 nM Mitotracker Green, Invitrogen, Grand Island, N.Y., for mitochondrial mass evaluation or for 15 min at 37° C. with 5 μM MitoSOX Red, Invitrogen, Grand Island, N.Y., for superoxide production measurement. After incubation, 10,000 cells samples were analyzed in a Becton Dickinson FACSAria II flow cytometer, BD Biosciences, San Jose, Calif.

[2] = system: VLCAD deficient fibroblasts (Fb671, Fb773, Fb834); assay: Oxygen consumption rate (Seahorse analyzer) in VLCAD deficient fibroblasts; conditions: FB671, media without glucose, FIG. 25
Description: Oxygen consumption assay: Fibroblasts controls and from patients with VLCAD deficiency were cultivated in normal media or in the absence of glucose for 72 hours. The oxygen consumption was monitored by a Seahorse XFe96 Extracellular Flux Analyzer (Seahorse Bioscience, Billerica, Mass.).
as §1, §2
Oxygen consumption rate (OCR) was measured with a Seahorse XF^c96 Extracellular Flux Analyzer (Seahorse Bioscience, Billerica, Mass.). The apparatus contains a fluorophore that is sensitive to changes in oxygen concentration, which enables it to accurately measure the rate at which cytochrome c oxidase (complex IV) reduces one O2 molecule to two H2O molecules during OXPHOS. Cells were seeded in 96-well Seahorse tissue culture microplates in growth media at a density of 80,000 cells per well. To ensure equal cell numbers, cells were seeded in cell culture plates pre-coated with Cell-Tak (BD Biosciences, San Jose, Calif.). All cell lines were measured with four to six wells per cell line. Then, the entire experiments were repeated. Before running the Seahorse assay, cells were incubated for 1 h without CO2 in unbuffered DMEM. Initial OCR was measured to establish a baseline (basal respiration). Reserve capacity was also determined after the injection of 300 nM carbonyl cyanide 4-(trifluoromethoxy) phenylhydrazone (FCCP), Seahorse XF Cell Mito Stress Test Kit, Santa Clara, Calif. Data were reported in pmol/min for OCR.

[3] = system: FAO deficient fibroblasts; assay: Superoxide production (MitoSOX dye) in FAO deficient fibroblasts; conditions: FAO deficient fibroblasts cultured in absence of glucose 48-72 h
Description: FAO deficient fibroblasts were cultured in the absence of glucose for 48-72 h to shift to fatty acids as the energy source. Oxygen consumption rate (OCR) was monitored by a Seahorse XF analyzer (See FIG. 23). Mitochondrial mass was examined by MitoTracker Green and ROS generation by MitoSOX dye. Protein immunocontent was evaluated by western blotting. […] Testing of XJB-5-131 was conducted essentially as described for JP4-039.
as §3

| SMILES | Superoxide generation (increased levels in VLCAD deficient cells) [1] | Reserved capacity (oxygen consumption) ([2]; 40 nM) | Basal respiration (oxygen consumption) ([2]; 200 nM) | Reserved capacity (oxygen consumption) ([2]; 200 nM) | Increased superoxide production [3] |
| --- | --- | --- | --- | --- | --- |
| COC1=C(OC)C(=O)C(CCCCCCCCCC[P+](c2ccccc2)(c2ccccc2)c2ccccc2)=C(C)C1=O [MitoQ] | JP4-039 was the only antioxidant able to decrease superoxide generation |  |  |  |  |
| CC(=O)N[C@@H](CS)C(=O)O [N-acetylcysteine] | JP4-039 was the only antioxidant able to decrease superoxide generation |  |  |  |  |
| CC(C)C[C@@H](/C=C/[C@H](Cc1ccccc1)C(=O)N1CCC[C@H]1C(=O)N[C@H](C(=O)N[C@@H](CCCNC(=O)OCc1ccccc1)C(=O)NC1CC(C)(C)N([O])C(C)(C)C1)C(C)C)NC(=O)OC(C)(C)C [XJB-5-131] |  | improves | improved | improves | prevented |
| Oc1ccc(C=Cc2cc(O)cc(O)c2)cc1 [resveratrol] | JP4-039 was the only antioxidant able to decrease superoxide generation |  |  |  |  |
